According to patent US5373020A, “Substituted 5-(2-((2-aryl-2-hydroxyethyl)amino)propyl)-1,3-benzodioxoles” (American Cyanamid Company, priority 1993, dated 1994):
pEC50: −log10 of the molar value. Where two headings read alike, the source gives them in different places.

Key:
β2-receptors = target: T1, β2-receptors (Mus musculus, UniProt P18762); experiment: Inhibition of insulin-mediated incorporation of 14C-glucose into glycogen in isolated soleus muscle (β2-effect); details: for β2 activity: CL1 vs BRL1 (FIG. 1), CL2 vs BRL2 (FIG. 2)
T1 construct: Soleus muscle from mice were dissected; from tissue; host or cells: mouse soleus muscle
T1 sequence (P18762 whole entry): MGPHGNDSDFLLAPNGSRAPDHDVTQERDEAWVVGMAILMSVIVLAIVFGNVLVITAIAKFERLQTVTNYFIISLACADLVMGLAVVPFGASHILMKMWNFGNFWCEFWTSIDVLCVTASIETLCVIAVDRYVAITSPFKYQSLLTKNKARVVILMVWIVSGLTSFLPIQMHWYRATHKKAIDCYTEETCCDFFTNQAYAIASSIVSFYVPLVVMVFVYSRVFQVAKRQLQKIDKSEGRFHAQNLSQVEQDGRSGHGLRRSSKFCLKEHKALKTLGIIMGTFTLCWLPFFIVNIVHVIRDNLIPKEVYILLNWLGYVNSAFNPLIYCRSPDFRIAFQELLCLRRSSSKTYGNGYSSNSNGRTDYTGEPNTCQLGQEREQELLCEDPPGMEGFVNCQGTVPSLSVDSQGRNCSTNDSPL
Method: (§1) β-Adrenergic receptors can be divided into β1, β2 and β3 -subtypes. Activation of β1 -receptors invokes increases in heart rate while activation of β2 -receptors stimulates glycogen breakdown in muscle and thereby prevents glycogen synthesis. Activation of β3 -receptors stimulates lipolysis (the breakdown of adipose tissue triglycerides to glycerol and free fatty acids), and thereby promotes the loss of fat mass.
The β2 -effect of the compounds was determined by their ability to inhibit the insulin-mediated incorporation of ^14 C-glucose into glycogen in isolated muscle. Soleus muscle from mice were dissected, tied at each end, and placed in a clamp to maintain tension. The clamped muscle was added to a vial that contained 2 ml of KHB with 1.5% bovine serum albumin, 0.3 mU/ml insulin, 5 mM (U^-14 C) glucose, and the appropriate additions of compound or vehicle. The vial was gassed with 95% O2 -5% CO2, capped, and the tissue incubated for one hour in a rotating water bath at 37° C. The muscle was then removed, rinsed in ice-cold saline, blotted and weighed. It was then added to 1 ml of 30% KOH containing 5 mg/ml of oyster glycogen, boiled for 10 minutes, and 0.4 ml of 2% Na2 SO4 and 3.2 ml of 100% ethanol added. After standing overnight at 4° C., the glycogen was pelleted by centrifugation, washed once with 66% ethanol, and repelleted. The pellet was dissolved in 1 ml of water and the amount of radioactivity present determined by liquid scintillation.

β1-receptors = target: T2, β1-receptors (Cavia porcellus, UniProt H0W3H1); experiment: Effect on heart rate of isolated right atria (β1-effect); design: species or system guinea pig; details: for β1 activity: CL1 vs BRL1 (FIG. 1), CL2 vs BRL2 (FIG. 2)
T2 construct: from tissue; host or cells: guinea pig right atria
T2 sequence (H0W3H1 1-470): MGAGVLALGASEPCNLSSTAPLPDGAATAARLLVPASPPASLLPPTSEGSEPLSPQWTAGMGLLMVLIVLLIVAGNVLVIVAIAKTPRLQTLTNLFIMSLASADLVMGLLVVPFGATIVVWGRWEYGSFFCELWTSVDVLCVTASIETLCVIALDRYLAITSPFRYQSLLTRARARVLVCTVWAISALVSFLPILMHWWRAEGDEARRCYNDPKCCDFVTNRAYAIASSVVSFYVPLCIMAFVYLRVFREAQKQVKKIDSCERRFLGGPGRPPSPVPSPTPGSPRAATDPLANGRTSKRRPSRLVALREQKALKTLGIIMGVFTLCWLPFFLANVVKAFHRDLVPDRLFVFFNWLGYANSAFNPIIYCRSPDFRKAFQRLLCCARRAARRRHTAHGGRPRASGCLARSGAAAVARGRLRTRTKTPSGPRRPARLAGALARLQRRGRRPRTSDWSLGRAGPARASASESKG
Method: as §1
Selectivity of a compound was determined using the following procedures. The effect on heart rate (β1 -effect) was determined using isolated right atria. […] The right atria were dissected and clamped at one end to a tissue holder and electrode assembly (MRA Corp.) and tied at the other end to a force-displacement transducer (Gould-Statham, Burco). The tissues were maintained at 32° C. in a 50 ml capacity glass chamber (MRA Corp.) preloaded with 0.5 g tension. Heart rate was monitored by a Grass polygragh. […] The increase in heart rate was calculated and considered to be the maximum response for that tissue. The tissues were then washed and allowed to equilibrate for 90 minutes. Cumulative concentration-response curves were then determined for each compound or vehicle. All responses were measured 5 minutes post-exposure.

ob/ob mice = experiment: Plasma glucose, compound in chow, obese mice; assay type: in vivo, mouse (C57 B1/6J ob/ob)
Method: (§2) The compounds of this invention were tested for hypoglycemic and anti-obesity activity according to the following procedure.
(§3) Obese mice (C57 B1/6J (ob/ob)), and/or diabetic mice (C57 B1/KsJ (db/db)) were obtained from Jackson Laboratories, Bar Harbor, Maine. Obese rats (fa/fa) were obtained from Charles River Laboratories, Wilmington, Mass. Obese mice were 8 weeks of age and diabetic mice were 9 weeks of age at the start of the test. Obese rats were 12-14 weeks of age at the start.
(§4) The test compounds were dissolved in methanol, mixed with powdered Purina rodent chow on a weight of compound to weight of chow basis and thoroughly dried.
(§5) Groups of 6 control mice or rats received vehicle (methanol) treated chow.
[…] Thus, a 40 g mouse, fed the test compound at a concentration of 0.02 percent of the diet, would receive a dose of 20 mg/kg/day if it ate 4 g of chow per day.
(§6) The mice or rats were weighed before the first treatment and once at the end of each indicated treatment period.
(§7) Blood samples were collected before the first treatment and once at the end of each indicated treatment period by retro-orbital puncture using heparinized capillary tubes.
(§8) Plasma was separated by centrifugation in a Beckman microfuge for 5 minutes. Plasma glucose concentrations were determined with the Beckman glucose analyzer which uses a glucose oxidase method.

β3-receptors = target: T3, β3-receptors (Rattus norvegicus, UniProt P26255); experiment: Stimulation of adipocyte lipolysis (β3-effect); assay type: cell-based
T3 construct: Rat epididymal fat pads were excised and placed in 0.9% saline; from tissue; host or cells: collagenase-isolated adipocytes from rat epididymal fat pads
T3 sequence (P26255 whole entry): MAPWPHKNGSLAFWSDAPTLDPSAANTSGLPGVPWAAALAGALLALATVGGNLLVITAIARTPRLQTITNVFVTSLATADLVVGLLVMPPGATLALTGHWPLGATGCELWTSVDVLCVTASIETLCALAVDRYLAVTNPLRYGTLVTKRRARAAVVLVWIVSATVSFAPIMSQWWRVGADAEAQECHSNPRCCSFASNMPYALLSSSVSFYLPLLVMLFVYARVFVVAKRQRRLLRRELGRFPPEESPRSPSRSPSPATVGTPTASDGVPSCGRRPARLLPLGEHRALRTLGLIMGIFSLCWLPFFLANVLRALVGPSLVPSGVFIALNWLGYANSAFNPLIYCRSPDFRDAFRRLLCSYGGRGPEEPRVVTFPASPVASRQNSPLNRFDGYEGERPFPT
Method: as §1
The β3 -effect of the compounds was determined by their ability to stimulate adipocyte lipolysis. Rat epididymal fat pads were excised and placed in 0.9% saline. Four grams of tissue were transferred to a flask with 20 ml of aerated Krebs-Henseleit bicarbonate (KHB) buffer containing 3% fatty acid-free bovine serum albumin to which 75 mg of crude bacterial collagenase (Worthington) had been added. The tissue was incubated for about 45 minutes at 37° C. with gentle shaking. The cells were then washed three times with two volumes of KHB buffer, filtered through two layers of gauze, and brought to a final volume of 80 ml with KHB buffer. One ml aliquots of the cell suspension were added to plastic test tubes containing the appropriate additions of vehicle or compound. The cells were gassed for 1 minute with 95% O2 -5% CO2, capped, and incubated at 37° C. with continuous shaking for a total of 30 minutes. The reaction was stopped by adding 0.1 ml of 30% perchloric acid and 0.1 ml of chloroform. After centrifugation, 0.5 ml of supernatant was transferred to another test tube and neutralized with 0.04 ml of 3M K2 CO3 -0.5M triethanolamine. The amount-of glycerol generated from the hydrolysis of endogenous triglycerides was determined in a coupled-enzyme spectrophotometric assay. […] The test tubes were incubated for 40 minutes at 37° C. with constant shaking. […] This value was corrected for the amount of NADH generated in the absence of glycerol by incubating another aliquot of the neutralized extract with the same assay mixture but without glycerokinase.

db/db mice = experiment: Plasma glucose, compound in chow, diabetic mice; assay type: in vivo, mouse (C57 B1/KsJ db/db); details: dose 0.005 % wt of chow
Method: as §2, §3, §4, §5
Groups of 6 test mice were fed ad libitum for up to seven weeks and food consumption was measured daily by weighing the food bins before and after the addition of fresh chow. Thus, a 40 g mouse, fed the test compound at a concentration of 0.02 percent of the diet, would receive a dose of 20 mg/kg/day if it ate 4 g of chow per day.
as §6, §7, §8

[1] = dose 0.005 % wt of chow, week 0 (before treatment)
[2] = dose 0.02 % wt of chow, week 0 (before treatment)
[3] = dose 0.002 % wt of chow, week 0 (before treatment)
[4] = dose 0.002 % wt of chow, week 1
[5] = dose 0.005 % wt of chow, week 1

C[C@H](Cc1ccc(OCC(=O)[O-])cc1)NC[C@H](O)c1cccc(Cl)c1.[Na+] (relative stereo) [BRL2, (R*,R*)(+/-)4-(2-((2-(3-chlorophenyl)-2-hydroxyethyl)amino)propyl)phenoxy-acetic acid, monosodium salt] was tested, and the pEC50 (β2-receptors) was 6.10, the “β2 activity” value (β2-receptors) was “full agonist with measurable activity at 1×10^-7M” and the pEC50 (β1-receptors) was 5.25. For the same molecule, the “β1 activity” value (β1-receptors) was “significant β1 activity”.

With COC(=O)C1(C(=O)OC)Oc2ccc(C[C@@H](C)NC[C@@H](O)c3cccc(Cl)c3)cc2O1 (relative stereo) [(R*,S*)-(+/-)-5(2-((2-(3-chlorophenyl))-2-hydroxyethyl)amino)propyl)-1,3-benzodioxole-2,2-dicarboxylic acid, dimethyl ester] the “Plasma Glucose Levels” value (ob/ob mice; [1]) was 218 mg/100 ml, the “Plasma Glucose Levels” value (ob/ob mice; dose 0.005 % wt of chow, week 5) was 162 mg/100 ml and the “Plasma Glucose Levels” value (ob/ob mice; dose 0.005 % wt of chow, week 10) was 174 mg/100 ml. The “Plasma Glucose Levels” value (ob/ob mice; [2]) was 219 mg/100 ml, the “Plasma Glucose Levels” value (ob/ob mice; dose 0.02 % wt of chow, week 5) was 135 mg/100 ml and the “Plasma Glucose Levels” value (ob/ob mice; dose 0.02 % wt of chow, week 10) was 153 mg/100 ml.

In the case of C[C@H](Cc1ccc2c(c1)OCO2)NC[C@H](O)c1cccc(Cl)c1 (racemic) [(R*,R*)-(+/-)-alpha-(((2-(1,3-benzodioxol-5-yl)-1-methylethyl)amino)methyl)-3-chlorobenzenemethanol mixture with (R*,S*)-(+/-)alpha-(((2-(1,3-benzodioxol-5-yl)-1-methylethyl)amino)methyl)-3-chlorobenzenemethanol, reference compound], the “Plasma Glucose Levels” value (ob/ob mice; [3]) was 226 mg/100 ml, the “Plasma Glucose Levels” value (ob/ob mice; [4]) was 234 mg/100 ml and the “Plasma Glucose Levels” value (ob/ob mice; [1]) was 227 mg/100 ml. For the same molecule, the “Plasma Glucose Levels” value (ob/ob mice; [5]) was 175 mg/100 ml, the “Plasma Glucose Levels” value (ob/ob mice; [2]) was 227 mg/100 ml and the “Plasma Glucose Levels” value (ob/ob mice; dose 0.02 % wt of chow, week 1) was 149 mg/100 ml.

COC(=O)COc1ccc(C[C@@H](C)NC[C@H](O)c2ccc(Cl)cc2)cc1 (relative stereo) [BRL1, (R*,R*)-(±)-(4-(2-((2-(4-chlorophenyl)-2-hydroxyethyl)amino)propyl)phenoxy)-acetic acid, methyl ester, reference compound] was tested, and the pEC50 (β3-receptors) was 7.89, the “β3 potency in comparison” value (β3-receptors; CL1 vs BRL1 (FIG. 1), CL2 vs BRL2 (FIG. 2)) was “slightly greater β3 potency” and the “Selectivity for Lipolysis over Atria ((EC50 - β1)/(EC50 - β3))” value (β3-receptors; ratio EC50 β1 / EC50 β3) was 15. For the same molecule, the “Selectivity for Lipolysis over Gly. Syn. ((EC50 - β2)/(EC50 - β3))” value (β3-receptors; ratio EC50 β2 / EC50 β3) was 9, the pEC50 (β2-receptors) was 6.92 and the “β2 activity” value (β2-receptors) was “more of the undesirable β1 and β2 activities than does CL1”. The pEC50 (β1-receptors) was 6.70, the “β1 activity” value (β1-receptors) was “more of the undesirable β1 and β2 activities than does CL1” and the “Plasma Glucose Levels” value (ob/ob mice; dose 0.0001 % wt of chow, week 0 (before treatment)) was 231 mg/100 ml. The “Plasma Glucose Levels” value (ob/ob mice; dose 0.0001 % wt of chow, week 1) was 143 mg/100 ml, the “Plasma Glucose Levels” value (ob/ob mice; dose 0.0001 % wt of chow, week 2) was 119 mg/100 ml and the “Plasma Glucose Levels” value (ob/ob mice; dose 0.0005 % wt of chow, week 0 (before treatment)) was 232 mg/100 ml. The “Plasma Glucose Levels” value (ob/ob mice; dose 0.0005 % wt of chow, week 1) was 140 mg/100 ml, the “Plasma Glucose Levels” value (ob/ob mice; dose 0.0005 % wt of chow, week 2) was 126 mg/100 ml and the “Plasma Glucose Levels” value (ob/ob mice; [1]) was 231 mg/100 ml. For the same molecule, the “Plasma Glucose Levels” value (ob/ob mice; [5]) was 137 mg/100 ml, the “Plasma Glucose Levels” value (ob/ob mice; dose 0.005 % wt of chow, week 2) was 138 mg/100 ml and the “Plasma Glucose Levels” value (db/db mice; week 0 (before treatment)) was 440 mg/100 ml. For the same molecule, the “Plasma Glucose Levels” value (db/db mice; week 1) was 138 mg/100 ml and the “Plasma Glucose Levels” value (db/db mice; week 2) was 132 mg/100 ml.

With C[C@@H](Cc1ccc2c(c1)OCO2)NC[C@H](O)c1cccc(Cl)c1 (relative stereo) [(R*,S*)-(+/-)-alpha-(((2-(1,3-benzodioxol-5-yl)-1-methylethyl)amino)methyl)-3-chlorobenzenemethanol, reference compound] the “Plasma Glucose Levels” value (ob/ob mice; [3]) was 228 mg/100 ml, the “Plasma Glucose Levels” value (ob/ob mice; [4]) was 204 mg/100 ml and the “Plasma Glucose Levels” value (ob/ob mice; [1]) was 226 mg/100 ml. The “Plasma Glucose Levels” value (ob/ob mice; [5]) was 176 mg/100 ml, the “Plasma Glucose Levels” value (ob/ob mice; [2]) was 229 mg/100 ml and the “Plasma Glucose Levels” value (ob/ob mice; dose 0.02 % wt of chow, week 1) was 128 mg/100 ml.

In the case of COC(=O)C1(C(=O)OC)Oc2ccc(C[C@@H](C)NC[C@H](O)c3cccc(Cl)c3)cc2O1 (stereo in doubt) [CL5, (R,R)(+/-)5-(2-((2-(3-chlorophenyl)-2-hydroxyethyl)-amino)propyl)-1,3-benzodioxole-2,2-dicarboxylic acid, dimethyl ester hydrobomide], the “relative β3 potency of RR over SS form” value (β3-receptors; RR vs SS enantiomer, lipolysis) was 36 fold.

COC(=O)C1(C(=O)OC)Oc2ccc(C[C@H](C)NC[C@@H](O)c3cccc(Cl)c3)cc2O1 (stereo in doubt) [CL6, (S,S)(+/-)5-(2-((2-(3-chlorophenyl)-2-hydroxyethyl)-amino)propyl)-1,3-benzodioxole-2,2-dicarboxylic acid, dimethyl ester hydrobomide] showed a pEC50 (β3-receptors; read-out: Lipolysis (β3) (EC50)) of 6.54.
